Reference: patent US20260374766A1, “METHODS FOR TREATING CANCER” (Antares Therapeutics, Inc., priority 2022, published 2026)
Where two headings read alike, the source gives them in different places.

Assays:
NUGC3 p53 Y220C = assay: Cell Proliferation Assay (CellTiter-Glo, CTG), NUGC3 p53 Y220C; type: cell-based; settings: Homo sapiens, NUGC-3, 120 h, 5 days
Protocol: (§1) Inducible p53 Y220C and R273H constructs (Tet-One inducible expression system; Takara) were stably expressed in NClH1299 cells by lentiviral transduction. NUGC3, A549, BxPC3, T3M4, HuH7, HCC2935, MFE296, NClH1299, NClH1299-inducible p53 Y220C, and NClH1299-inducible p53 R273H cell lines were used for cell proliferation assay. 250-500 cells were seeded in each well of 384 plate and then compounds were dispensed into each well using Echo or Tecan. After 5 days of incubation, equal volume of CellTiter-Glo reagent (G7570; Promega) was added into each well and the plate was incubated at room temperature for 10 minutes with shaking. The luminescent signal was measured by PheraStar microplate reader and IC50 was calculated.

H1299 p53 Y220C = assay: Cell Proliferation Assay (CellTiter-Glo, CTG), H1299 p53 Y220C (NClH1299-inducible p53 Y220C); type: cell-based; settings: Homo sapiens, NCI-H1299, 120 h, 5 days
Protocol: as §1

H1299 p53 R273H = assay: Cell Proliferation Assay (CellTiter-Glo, CTG), H1299 p53 R273H (NClH1299-inducible p53 R273H); type: cell-based; settings: Homo sapiens, NCI-H1299, 120 h, 5 days
Protocol: as §1

[1] = molecular target: T1, p53 Y220C mutant protein (amino acid residues 94-293) (Homo sapiens, UniProt P04637, Y220C); assay: Surface Plasmon Resonance (SPR) assay, Kd_kinetic; type: binding; settings: SPR; p53 Y220C; read-out: SPR P53 Y220C KD kinetic
T1 construct: p53 Y220C mutant protein (amino acid residues 94-293)
T1 sequence (P04637 94-293, stated change not applied): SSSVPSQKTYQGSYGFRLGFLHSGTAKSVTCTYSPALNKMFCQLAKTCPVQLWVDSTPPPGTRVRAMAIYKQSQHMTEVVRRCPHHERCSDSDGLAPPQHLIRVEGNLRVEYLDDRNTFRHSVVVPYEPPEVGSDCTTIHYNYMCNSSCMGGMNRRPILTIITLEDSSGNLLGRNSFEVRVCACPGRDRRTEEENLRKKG
Protocol: Surface Plasmon Resonance (SPR) Assay Protocol
SPR experiments were performed on a Biacore 8K instrument. […] The running buffer contained 50 mM Tris, pH 7.5, 100 mM NaCl, 1 mM DTT, 0.01% Brij35, 0.05% Tween-20 and 1% DMSO. The assay temperature was maintained at 16 or 20 °C and data were fit into the 1:1 binding model using the Biacore Insight Evaluation software.

p53 Y220C = p53 Y220C (Homo sapiens, UniProt P04637, Y220C); assay: Luciferase Reporter Assay (Luc), p53 response element, NClH1299 cells with inducible p53 Y220C; type: cell-based; settings: 6 hour; for AC50: read-out: Luc P53 Y220C AC50
Protocol: Luciferase Reporter Assay Protocol
The cells were then used for p53 reporter assay. 5,000 cells were seeded in each well of 384 plate and cultured in 0.5 ug/mL doxycycline (D3072; Sigma) containing medium for 24 hours before compound treatment. After 6 hour of compound treatment, equal volume of One-Glo reagent (E6110; Promega) was added to each well and the plate was incubated for 5 minutes with shaking at room temperature. The luciferase activity was immediately measured with PheraStar microplate reader.

[2] = NClH1299-inducible p53 Y220C cells, CellTiter-Glo
[3] = NClH1299-inducible p53 R273H cells, CellTiter-Glo
[4] = AC50, luciferase reporter, NClH1299 inducible p53 Y220C
[5] = Emax, luciferase reporter, NClH1299 inducible p53 Y220C
[6] = NClH1299-inducible p53 Y220C cells
[7] = NClH1299-inducible p53 R273H cells
[8] = AC50, NClH1299 cells with inducible p53 Y220C
[9] = Emax, NClH1299 cells with inducible p53 Y220C, 10 uM tool compound as positive control

Structure (SMILES) | IC50 (NUGC3 p53 Y220C; NUGC3 cells, CellTiter-Glo) | IC50 (H1299 p53 Y220C; [2]) | IC50 (H1299 p53 R273H; [3]) | Kd [1] | AC50 (p53 Y220C; [4]) | Emax (p53 Y220C; [5]) | IC50 (NUGC3 p53 Y220C; CellTiter-Glo, NUGC3 p53 Y220C) | IC50 (H1299 p53 Y220C; CellTiter-Glo, H1299 p53 Y220C) | IC50 (H1299 p53 R273H; CellTiter-Glo, H1299 p53 R273H) | Emax (p53 Y220C; luciferase reporter, NClH1299 inducible p53 Y220C, 10 uM tool compound as positive control) | AC50 (p53 Y220C; luciferase reporter, NClH1299 inducible p53 Y220C) | IC50 (NUGC3 p53 Y220C; NUGC3 cells) | IC50 (H1299 p53 Y220C; [6]) | IC50 (H1299 p53 R273H; [7]) | AC50 (p53 Y220C; [8]) | Emax (p53 Y220C; [9])
COc1ccc(C(=O)N[C@@H](C)[C@@H](C)O)cc1NCC#Cc1cc2c(N[C@@H]3CCN(C)C[C@@H]3F)cccn2c1SC(F)(F)F [Example 410] | < 750 nM | < 750 nM | ≥ 10000 nM | < 10 nM | < 750 nM | > 90% | – | – | – | – | – | – | – | – | – | –
CN1CC[C@@H](Nc2cccn3c(SC(F)(F)F)c(C#CCNc4ccc(C(=O)NC[C@@H](O)CO)cc4)cc23)[C@@H](F)C1 [Example 384] | < 750 nM | < 750 nM | ≥ 10000 nM | < 10 nM | < 750 nM | > 90% | – | – | – | – | – | – | – | – | – | –
CNC(=O)c1ccnc(NCC#Cc2nc3c(N[C@@H]4CCN(C)C[C@@H]4F)cccn3c2SC(F)(F)F)c1 [Example 150] | – | – | – | – | – | – | > 3000 nM | > 3000 nM | ≥ 10000 nM | < 70% | > 3000 nM | – | – | – | – | –
CNC(=O)c1ccc(NCC#Cc2cc3c(N[C@@H]4CCNC[C@@H]4F)cccn3c2SC(F)(F)F)c(O)c1 [Example 455, 4-{[3-(8-{[(3S,4R)-3-fluoropiperidin-4-yl]amino}-3-[(trifluoromethyl)sulfanyl]indolizin-2-yl)prop-2-yn-1-yl]amino}-3-hydroxy-N-methylbenzamide] | – | – | – | < 10 nM | – | – | – | – | – | – | – | < 750 nM | < 750 nM | 5000 to 8000 nM | < 750 nM | 80 to 90%
CS(=O)(=O)CCNC(=O)c1ccc(NCC#Cc2cc3c(N[C@@H]4CCNC[C@@H]4F)cccn3c2SC(F)(F)F)cc1 [Example 438] | < 750 nM | < 750 nM | ≥ 10000 nM | < 10 nM | < 750 nM | 80 to 90% | – | – | – | – | – | – | – | – | – | –
CNC(=O)c1ccc(NCC#Cc2nc3c(N[C@@H]4CCOC[C@@H]4F)cccn3c2SC(F)(F)F)c(OC2CN(C)C2)c1 [Example 275, 4-{[3-(8-{[(3R,4R)-3-fluorooxan-4-yl]amino}-3-[(trifluoromethyl)sulfanyl]imidazo[1,2-a]pyridin-2-yl)prop-2-yn-1-yl]amino}-N-methyl-3-[(1-methylazetidin-3-yl)oxy]benzamide] | < 750 nM | < 750 nM | 5000 to 8000 nM | < 10 nM | < 750 nM | 80 to 90% | – | – | – | – | – | – | – | – | – | –
CN1CC[C@@H](Nc2cccn3c(SC(F)(F)F)c(C#CCNc4ccc(P(C)(C)=O)cc4)nc23)[C@@H](F)C1 [Example 315] | < 750 nM | < 750 nM | ≥ 10000 nM | < 10 nM | 750 to 1500 nM | 80 to 90% | – | – | – | – | – | – | – | – | – | –
CNC(=O)c1ccc(O)c(NCC#Cc2cc3c(N[C@@H]4CCN(C)C[C@@H]4F)cccn3c2SC(F)(F)F)c1 [Example 472] | – | – | – | < 10 nM | – | – | – | – | – | – | – | < 750 nM | < 750 nM | ≥ 10000 nM | < 750 nM | > 90%
CNC(=O)c1ccc(OC2COC2)c(NCC#Cc2cc3c(N[C@@H]4CCNC[C@@H]4F)cccn3c2SC(F)(F)F)n1 [Example 463] | – | – | – | < 10 nM | – | – | – | – | – | – | – | < 750 nM | < 750 nM | ≥ 10000 nM | < 750 nM | > 90%
COc1ccc(C(=O)NC[C@H](C)O)cc1NCC#Cc1cc2c(N[C@@H]3CCN(C)C[C@@H]3F)cccn2c1SC(F)(F)F [Example 404] | < 750 nM | < 750 nM | 8000 to 10000 nM | < 10 nM | < 750 nM | > 90% | – | – | – | – | – | – | – | – | – | –
C[C@@H](O)[C@@H](C)NC(=O)c1ccc(NCC#Cc2cc3c(N[C@@H]4CCN(C)C[C@@H]4F)cccn3c2SC(F)(F)F)cc1 [Example 371] | < 750 nM | < 750 nM | 8000 to 10000 nM | < 10 nM | < 750 nM | > 90% | – | – | – | – | – | – | – | – | – | –
